What all share (type): functional
Test [1] deals with Mycobacterium tuberculosis. Briefly: Antitubercular activity against Rifampicin-resistant Mycobacterium tuberculosis assessed as parasite growth inhibition by REMA method.
For test [2], the system named is Mycobacterium tuberculosis. As to the kind of experiment: Antitubercular activity against Isoniazid-resistant Mycobacterium tuberculosis assessed as parasite growth inhibition by REMA method.
Test [3] relates to Mycobacterium tuberculosis. Briefly: Antitubercular activity against multidrug-resistant Mycobacterium tuberculosis assessed as parasite growth inhibition by REMA method.
The test system of test [4] is Mycobacterium tuberculosis. As to the kind of experiment: Ratio of isoniazid IC50 to compound IC50 for Isoniazid-resistant Mycobacterium tuberculosis by REMA method.

Molecules are shown by their SMILES. Converted amounts (≈) assume the structure as drawn.

What is called MIC90 is an inhibitory concentration at the 90% level, which refers to growth in some studies and to a panel of isolates in others.

On to `O=C1NC(c2c[nH]c3ccc(Br)cc23)Nc2ccccc21` (stereo not drawn), for which the MIC90 in test [1] was 46.9 µM (≈ 16 µg/mL); in test [2], 46.9 µM (≈ 16 µg/mL); in test [3] it was 188 µM (≈ 64.2 µg/mL).

For `O=C1NC(c2c[nH]c3ccc(I)cc23)Nc2ccccc21` (stereo not drawn), the MIC90 in test [1] was determined as 5.2 µM (≈ 2.02 µg/mL); in test [2], 10.3 µM (≈ 4.01 µg/mL); in test [3], 20.7 µM (≈ 8.06 µg/mL). The Ratio in test [4] was greater than 12.

On to `CC[C@@H](CO)NCCN[C@@H](CC)CO` [ETHAMBUTOL], for which the MIC90 in test [3] turned out to be 626 µM (≈ 128 µg/mL).

As to `NNC(=O)c1ccncc1` [ISONIAZID], the MIC90 in test [2] came to 467 µM (≈ 64.1 µg/mL); in test [3], 117 µM (≈ 16 µg/mL).

Regarding `CO[C@H]1/C=C/O[C@@]2(C)Oc3c(C)c(O)c4c(O)c(c(/C=N/N5CCN(C)CC5)c(O)c4c3C2=O)NC(=O)/C(C)=C\C=C\[C@H](C)[C@H](O)[C@@H](C)[C@@H](O)[C@@H](C)[C@H](OC(C)=O)[C@@H]1C` [RIFAMPIN], the results for the MIC90 in test [1], in test [2] and in test [3] were 311 µM (≈ 256 µg/mL), 0.07 µM (≈ 0.0576 µg/mL) and 38.9 µM (≈ 32 µg/mL), respectively.

(Values after ChEMBL document CHEMBL3425465, “Synthesis, antimalarial and antitubercular activities of meridianin derivatives” (Eur J Med Chem, 2015).)
